Data set [1] concerns the target T1, Cytochrome P450 3A4 (Homo sapiens, UniProt P08684). In words: Reversible inhibition of CYP3A4 in human liver microsomes using midazolam as substrate in presence of NADPH by LC-MS/MS analysis. It is filed as ADME.
In data set [2] the target is T1, Cytochrome P450 3A4. The data set is described as follows: Time dependent inhibition of CYP3A4 in human liver microsomes assessed as substrate AUC shift using midazolam as substrate. Also on record: scale not given: the % may be the effect or the level left. The class given is ADME.
The subject of the next data set is HT-1080. The data set is described as follows: Antitumor activity against human HT1080 cells xenografted in nude NCR mouse assessed as tumor growth inhibition at 25 to 50 mg/kg administered via oral gavage twice per day for 5 consecutive days measured up to 20 days. The class given is functional, organism-based.
Data set [3] in a line: Volume of distribution at steady state in Beagle dog at 0.5 mg/kg, iv. It is filed as ADME, organism-based, Canis lupus familiaris. The following applies: in vivo, read-out: Vdss.
The target of data set [4] is T2, Cytochrome P450 2D6 (Homo sapiens, UniProt P10635). The data set is described as follows: Reversible inhibition of CYP2D6 in human liver microsomes using […] as substrate in presence of NADPH by LC-MS/MS analysis. The class given is ADME.
T2 sequence (P10635 whole entry): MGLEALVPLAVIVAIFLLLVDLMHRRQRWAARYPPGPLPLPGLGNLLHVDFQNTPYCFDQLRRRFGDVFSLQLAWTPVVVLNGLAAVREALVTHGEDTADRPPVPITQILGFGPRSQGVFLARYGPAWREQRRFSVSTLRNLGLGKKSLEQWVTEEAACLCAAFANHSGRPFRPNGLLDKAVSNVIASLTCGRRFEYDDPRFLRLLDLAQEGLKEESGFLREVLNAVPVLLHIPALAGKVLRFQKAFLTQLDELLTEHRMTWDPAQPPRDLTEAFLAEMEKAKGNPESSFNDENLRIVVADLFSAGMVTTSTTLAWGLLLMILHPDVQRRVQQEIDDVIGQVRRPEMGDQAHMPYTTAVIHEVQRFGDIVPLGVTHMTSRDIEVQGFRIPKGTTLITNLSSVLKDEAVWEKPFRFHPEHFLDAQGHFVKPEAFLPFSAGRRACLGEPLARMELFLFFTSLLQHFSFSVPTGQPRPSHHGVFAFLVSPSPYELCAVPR
Data set [5] can be described thus: Oral bioavailability in Beagle dog at 3 mg/kg. The class given is ADME, organism-based, Canis lupus familiaris. The settings on record: in vivo.
Data set [6] addresses T3, Cytochrome P450 2C19 (Homo sapiens, UniProt P33261). The data set is described as follows: Reversible inhibition of CYP2C19 in human liver microsomes using […] as substrate in presence of NADPH by LC-MS/MS analysis. It is filed as ADME.
Data set [7] in a line: AUC in Sprague-Dawley rat at 5 mg/kg, po. It is filed as ADME, organism-based. The following applies: in vivo.
Data set [8] in a line: Protein binding in cynomolgus monkey plasma at 5 uM after 4 hrs by rapid equilibrium dialysis based LC-MS/MS analysis. It is filed as ADME, cell-free, Macaca fascicularis. The following applies: read-out: PPB (converted).
Data set [9] deals with Mus musculus. In words: Increase in body weight in human HT1080 tumor bearing nude NCR mouse cachexia model at 25 to 50 mg/kg administered via oral gavage twice per day for 5 consecutive days measured up to 20 days. The class given is functional, organism-based.
The nature of data set [10]: Protein binding in mouse plasma at 5 uM after 4 hrs by rapid equilibrium dialysis based LC-MS/MS analysis. It is filed as ADME, cell-free. The following applies: read-out: PPB (converted).
A short description of data set [11]: Time at which plasma concentration stays above plasma protein binding corrected human HT1080 cells IC50 in nude NCR mouse at 25 mg/kg, po bid administered via gavage. The class given is ADME, organism-based, HT-1080. The following applies: in vivo.
A short description of data set [12]: Clearance in Sprague-Dawley rat at 1 mg/kg, iv. It is filed as ADME, organism-based. The following applies: in vivo.
Data set [13] in a line: Half life in Beagle dog at 0.5 mg/kg, iv. It is filed as ADME, organism-based, Canis lupus familiaris. The following applies: in vivo.
Data set [14] is described as follows: Thermodynamic solubility of the compound in PBS at pH 7.4 after 24 hrs by liquid chromatography-chemiluminescence nitrogen detection assay. The class given is physicochemical. The following applies: read-out: Therm_solubility.
The nature of data set [15]: Octanol-aqueous phosphate buffer distribution coefficient, log D of the compound at pH 7.4 after 1 hr by LC/MS/MS analysis. The class given is physicochemical.
For data set [16], the target named is T1, Cytochrome P450 3A4. In words: Reversible inhibition of CYP3A4 in human liver microsomes using testosterone as substrate in presence of NADPH by LC-MS/MS analysis. The class given is ADME.
A short description of data set [17]: Volume of distribution at steady state in Sprague-Dawley rat at 1 mg/kg, iv. The following applies: in vivo, read-out: Vdss. It is filed as ADME, organism-based.
Data set [18] in a line: Oral bioavailability in Sprague-Dawley rat at 5 mg/kg. The following applies: in vivo. The class given is ADME, organism-based.
Data set [19] can be described thus: Cmax in Sprague-Dawley rat at 5 mg/kg, po. It is filed as ADME, organism-based. The following applies: in vivo. Also on record: dose 5 mg/kg, route oral.
The target in data set [20] is T3, Cytochrome P450 2C19. In words: Time dependent inhibition of CYP2C19 in human liver microsomes assessed as substrate AUC shift. The class given is ADME. Also on record: scale not given: the % may be the effect or the level left.
Data set [21] can be described thus: Kinetic solubility of the compound in PBS at 200 uM at pH 7.4 after 24 hrs by liquid chromatography-chemiluminescence nitrogen detection assay. The class given is physicochemical. The following applies: read-out: Kinetic_solubility.
Data set [22] addresses T4, Cytochrome P450 2C9 (Homo sapiens, UniProt P11712).
Data set [23] in a line: AUC in Beagle dog at 3 mg/kg, po. It is filed as ADME, organism-based, Canis lupus familiaris. The settings on record: in vivo.
Data set [24] has as its target T4, Cytochrome P450 2C9. In words: Time dependent inhibition of CYP2C9 in human liver microsomes assessed as substrate AUC shift. It is filed as ADME. Set-up: scale not given: the % may be the effect or the level left.
A short description of data set [25]: Half life in Sprague-Dawley rat at 1 mg/kg, iv. It is filed as ADME, organism-based. The following applies: in vivo.
The nature of data set [26]: Cmax in Beagle dog at 3 mg/kg, po. It is filed as ADME, organism-based, Canis lupus familiaris. Set-up: dose 3 mg/kg, route oral. The following applies: in vivo.
Data set [27] is described as follows: Protein binding in dog plasma at 5 uM after 4 hrs by rapid equilibrium dialysis based LC-MS/MS analysis. It is filed as ADME, cell-free, Canis lupus familiaris. The settings on record: read-out: PPB (converted).
For data set [28], the target named is T5, Cytochrome P450 1A2 (Homo sapiens, UniProt P05177).
T5 sequence (P05177 whole entry): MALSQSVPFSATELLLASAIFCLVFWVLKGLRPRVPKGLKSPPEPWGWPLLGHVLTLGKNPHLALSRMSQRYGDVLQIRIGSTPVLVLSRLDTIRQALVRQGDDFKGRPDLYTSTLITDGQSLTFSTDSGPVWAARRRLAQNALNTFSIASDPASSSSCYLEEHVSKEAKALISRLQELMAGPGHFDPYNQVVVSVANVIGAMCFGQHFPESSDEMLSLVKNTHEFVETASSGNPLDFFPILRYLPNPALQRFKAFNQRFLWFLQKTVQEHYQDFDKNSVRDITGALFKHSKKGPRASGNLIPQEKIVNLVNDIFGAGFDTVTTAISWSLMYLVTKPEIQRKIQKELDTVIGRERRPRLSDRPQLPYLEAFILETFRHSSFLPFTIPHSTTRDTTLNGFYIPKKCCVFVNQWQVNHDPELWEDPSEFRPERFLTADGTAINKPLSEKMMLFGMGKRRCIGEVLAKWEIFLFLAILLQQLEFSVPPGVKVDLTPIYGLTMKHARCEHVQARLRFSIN
In words: Time dependent inhibition of CYP1A2 in human liver microsomes assessed as substrate AUC shift. Also on record: scale not given: the % may be the effect or the level left. The class given is ADME.

The target of data set [29] is T2, Cytochrome P450 2D6. The data set is described as follows: Time dependent inhibition of CYP2D6 in human liver microsomes assessed as substrate AUC shift. It is filed as ADME. Also on record: scale not given: the % may be the effect or the level left.
Data set [30] in a line: Apparent permeability from basolateral to apical side in MDCK cells at 10 uM by LC/MS/MS analysis. The class given is ADME, cell-based, Canis lupus familiaris. The following applies: dog.
The target of data set [31] is T5, Cytochrome P450 1A2. The data set is described as follows: Reversible inhibition of CYP1A2 in human liver microsomes using […] as substrate in presence of NADPH by LC-MS/MS analysis. It is filed as ADME.
Data set [32] is described as follows: Protein binding in rat plasma at 5 uM after 4 hrs by rapid equilibrium dialysis based LC-MS/MS analysis. The class given is ADME, cell-free. The following applies: read-out: PPB (converted).
The nature of data set [33]: Protein binding in human plasma at 5 uM after 4 hrs by rapid equilibrium dialysis based LC-MS/MS analysis. The class given is ADME, cell-free. The settings on record: read-out: PPB (converted).
For data set [34], the target named is T1, Cytochrome P450 3A4. In words: Time dependent inhibition of CYP3A4 in human liver microsomes assessed as substrate AUC shift using testosterone as substrate. The class given is ADME. Also on record: scale not given: the % may be the effect or the level left.
Data set [35] relates to Mus musculus. In words: Toxicity in nude NCR mouse xenografted with human HT1080 cells assessed as change in body weight at 25 to 50 mg/kg administered via oral gavage twice per day for 5 consecutive days measured up to 20 days. The class given is organism-based, HT-1080. The settings on record: in vivo, 480 h.
Data set [36] can be described thus: Clearance in Beagle dog at 0.5 mg/kg, iv. It is filed as ADME, organism-based, Canis lupus familiaris. The following applies: in vivo.
The nature of data set [37]: Apparent permeability from apical to basolateral side in MDCK cells at 10 uM by LC/MS/MS analysis. The class given is ADME, cell-based, Canis lupus familiaris. The settings on record: dog.
Data set [38] concerns the target T1, Cytochrome P450 3A4. The data set is described as follows: Inhibition of CYP3A4 in human liver microsomes using testosterone as substrate in presence of NADPH by LC-MS/MS analysis. It is filed as ADME.
The target of data set [39] is T3, Cytochrome P450 2C19.
In data set [40] the target is T2, Cytochrome P450 2D6.
The target of data set [41] is T1, Cytochrome P450 3A4.
Data set [42] deals with T5, Cytochrome P450 1A2.
The target in data set [43] is T4, Cytochrome P450 2C9. The source holds these as a separate data set.

The source made the active and inactive calls. No cut-off for these calls is given here.

T3 sequence (P33261 whole entry): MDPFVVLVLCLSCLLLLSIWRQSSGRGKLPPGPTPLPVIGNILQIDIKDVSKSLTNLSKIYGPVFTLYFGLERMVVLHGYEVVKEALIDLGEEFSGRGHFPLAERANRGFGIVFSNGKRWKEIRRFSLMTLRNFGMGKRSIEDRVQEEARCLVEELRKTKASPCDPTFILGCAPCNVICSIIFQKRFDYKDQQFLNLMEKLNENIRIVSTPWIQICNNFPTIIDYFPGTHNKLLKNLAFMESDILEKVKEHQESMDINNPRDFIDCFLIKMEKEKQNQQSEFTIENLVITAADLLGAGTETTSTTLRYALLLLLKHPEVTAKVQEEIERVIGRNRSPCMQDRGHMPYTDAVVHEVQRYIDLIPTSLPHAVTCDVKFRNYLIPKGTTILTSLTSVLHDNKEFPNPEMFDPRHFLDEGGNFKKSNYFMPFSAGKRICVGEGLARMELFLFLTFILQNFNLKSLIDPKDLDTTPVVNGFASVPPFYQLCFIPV
T4 sequence (P11712 whole entry): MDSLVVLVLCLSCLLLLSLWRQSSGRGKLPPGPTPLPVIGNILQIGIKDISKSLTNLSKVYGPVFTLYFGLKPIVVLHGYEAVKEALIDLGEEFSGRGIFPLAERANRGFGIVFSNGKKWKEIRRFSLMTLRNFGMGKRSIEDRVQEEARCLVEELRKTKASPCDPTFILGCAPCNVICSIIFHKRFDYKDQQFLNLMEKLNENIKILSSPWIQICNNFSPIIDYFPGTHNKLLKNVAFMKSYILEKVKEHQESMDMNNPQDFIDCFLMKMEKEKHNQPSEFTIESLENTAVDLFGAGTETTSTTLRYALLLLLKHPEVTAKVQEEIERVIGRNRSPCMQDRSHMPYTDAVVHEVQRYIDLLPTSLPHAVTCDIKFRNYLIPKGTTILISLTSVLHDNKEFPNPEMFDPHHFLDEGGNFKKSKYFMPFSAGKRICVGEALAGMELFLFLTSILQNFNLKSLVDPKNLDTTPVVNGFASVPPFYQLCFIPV
T1 sequence (P08684 whole entry): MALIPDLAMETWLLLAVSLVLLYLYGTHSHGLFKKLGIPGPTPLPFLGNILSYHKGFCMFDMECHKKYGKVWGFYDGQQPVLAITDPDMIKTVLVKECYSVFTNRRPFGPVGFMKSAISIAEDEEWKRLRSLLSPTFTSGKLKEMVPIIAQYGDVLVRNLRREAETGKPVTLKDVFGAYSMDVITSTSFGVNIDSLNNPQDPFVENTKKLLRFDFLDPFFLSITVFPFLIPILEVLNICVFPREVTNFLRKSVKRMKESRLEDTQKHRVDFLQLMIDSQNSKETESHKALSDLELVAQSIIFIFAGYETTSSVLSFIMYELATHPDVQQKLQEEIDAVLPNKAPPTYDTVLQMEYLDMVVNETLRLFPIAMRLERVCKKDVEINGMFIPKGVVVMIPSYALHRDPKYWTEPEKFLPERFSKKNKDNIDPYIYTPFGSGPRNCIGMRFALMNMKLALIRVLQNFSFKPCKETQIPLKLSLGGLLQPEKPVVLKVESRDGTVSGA

In the case of `CC1(OC(=O)N2CCC3(CC2)C[C@@H]3CNC(=O)N2Cc3ccncc3C2)COC1`, the half-inhibitory concentration (IC50) at Cytochrome P450 3A4 [1] is greater than 10 µM; at Cytochrome P450 2D6 [4] it was greater than 10 µM; on Cytochrome P450 2C19 [6], greater than 10 µM; on Cytochrome P450 3A4 [16], greater than 10 µM; on Cytochrome P450 2C9 [22], greater than 10000 nM; on Cytochrome P450 1A2 [31], greater than 10 µM. Moreover, the Activity at Cytochrome P450 3A4 [2], at Cytochrome P450 2C19 [20], on Cytochrome P450 2C9 [24], on Cytochrome P450 1A2 [28], on Cytochrome P450 2D6 [29] and on Cytochrome P450 3A4 [34] was less than 15% throughout. Besides, in the data set with Mus musculus [35], the Activity result is “Non-Toxic”. Besides, the TGI result with HT-1080 was “Active”. Moreover, the Vd was determined as 0.8 L/kg in data set [3] and 9 L/kg in data set [17]. For the same compound, the bioavailability was found to be 86% in data set [5] and 29% in [18]. Also, the AUC in [7] was determined as 0.55 µM·h; in data set [23], 10.5 µM·h. The fraction unbound at 4 h, 5 µM was 0.46 in data set [8]; 0.47 in data set [10]; 0.34 in data set [27]; 0.44 in data set [32]; 0.44 in [33]. In addition, in the data set on Mus musculus [9], the result was Active. In data set [11], the Time stood at 20 h. Besides, the clearance in data set [12] turned out to be 110 mL/min/kg; in data set [36], 10.8 mL/min/kg. The half-life in [13] was 72 min; in [25], 84 min. The solubility thermodynamic at 24 h in data set [14] was greater than 6 mM. Further, in [15], the log distribution coefficient (logD) at 1 h was 1.2. Besides, the peak concentration (Cmax) in [19] is 640 nM; in [26], 4.8 µM. Further, in data set [21], the solubility kinetic at 24 h, 200 µM is greater than 100 µM. The Papp B→A at 10 µM in data set [30] turned out to be 12 ×10⁻⁶ cm/s. Besides, the Papp A→B at 10 µM in data set [37] came to 8.8 ×10⁻⁶ cm/s.
For `O=C(NCc1ccc(S(=O)(=O)c2cccc(C(F)(F)F)c2)cc1)c1cnc2[nH]ncc2c1`, the IC50 is 7.9 µM on Cytochrome P450 3A4 [38]; 6.5 µM against Cytochrome P450 2C19 [39]; 70 nM on Cytochrome P450 2C9 [22]; greater than 10 µM on Cytochrome P450 2D6 [40]; 9 µM against Cytochrome P450 3A4 [41]; greater than 10 µM on Cytochrome P450 1A2 [42]. Further, half-maximal inhibition against Cytochrome P450 2C9 [43] (IC50) was put at 4.8 µM.

The values are drawn from ChEMBL document CHEMBL3865840, “Minimizing CYP2C9 Inhibition of Exposed-Pyridine NAMPT (Nicotinamide Phosphoribosyltransferase) Inhibitors” (J Med Chem, 2016).
